From patent publication US10757944B2, “Ozone treatment for elimination of pathogens” (priority 2016, dated 2020)

Tests used:
[1] = Pesticide residue on hemp flower after ozone treatment (AOAC official method 2007.01); format: physicochemical; conditions: for Sample 1: residue on pesticide treated hemp exposed to ozone / Sample 2: residue on pesticide treated hemp exposed to ozone / Sample 3: residue on pesticide treated hemp exposed to ozone: 200 ppm ozone for 20 minutes; for average reduction of pesticide across the three samples tested: hemp, 20 minutes at 200 ppm ozone; for Control: residue on pesticide treated hemp not exposed to ozone: no ozone exposure
Description: The ability of ozone to reduce pesticide residue using an embodiment of a disclosed pathogen reduction device was evaluated. In this series of experiments, Myclobutanil and Bifenazate were purchased in liquid formulations (Myclobutanil at 19.7% from Dow AgroSciences as Eagle® 20EW and Bifenazate at 22.6% from Chemtura Corporation as Floramite® SC). The pesticides were sprayed on homogenized hemp flower and air dried. Dried hemp flower with pesticide was then exposed to treatment with 200 ppm of ozone for 20 minutes. Non pesticide treated hemp, pesticide treated hemp, and pesticide treated hemp that was exposed to ozone were analyzed by spectrometry using AOAC official method 2007.01. The results are disclosed below in Table 3 were Matrix Blank is non pesticide treated hemp (negative control), Control is pesticide treated hemp that was not exposed to ozone, and Sample 1, Sample 2, and Sample 3 are three samples of pesticide treated hemp that was exposed to ozone at 200 ppm for 20 minutes.

[2] = Cannabinoid and terpene content of cannabis flower before and after ozone exposure; format: physicochemical; conditions: for % Change (decrease): 60 minute exposure to 200 ppm of ozone vs before; for % After Ozone Exposure (60 minutes): content of cannabis flower after 60 minute exposure to 200 ppm of ozone; for % Before Ozone Exposure (0 minutes): content of cannabis flower before exposure
Description: Cannabinoid and terpene content of cannabis flower was measured before exposure to 200 ppm of ozone in an embodiment of a disclosed pathogen reduction device and after a 60 minute exposure. The results are disclosed in Table 7 by the different cannabinoids and terpenes measured.

COc1ccc(-c2ccccc2)cc1NNC(=O)OC(C)C [Bifenazate]
Sample 1: residue on pesticide treated hemp exposed to ozone [1]: 0.28 mg/kg
Sample 2: residue on pesticide treated hemp exposed to ozone [1]: 0.21 mg/kg
Sample 3: residue on pesticide treated hemp exposed to ozone [1]: 0.22 mg/kg
average reduction of pesticide across the three samples tested [1]: 0.1 ppm
Control: residue on pesticide treated hemp not exposed to ozone [1]: 0.34 mg/kg

CCCCCc1cc2c(c(O)c1C(=O)O)C=CC(C)(CCC=C(C)C)O2 (stereo not shown) [CBCA]
% Change (decrease) [2]: 0.28%
% After Ozone Exposure (60 minutes) [2]: 0.102%
% Before Ozone Exposure (0 minutes) [2]: 0.105%

C=C(C)[C@@H]1CCC(C)=C[C@H]1c1c(O)cc(CCCCC)c(C(=O)O)c1O [CBDA]
% Change (decrease) [2]: 5.4%
% After Ozone Exposure (60 minutes) [2]: 0.035%
% Before Ozone Exposure (0 minutes) [2]: 0.037%

CCCCCc1cc(O)c(C/C=C(\C)CCC=C(C)C)c(O)c1C(=O)O [CBGA]
% Change (decrease) [2]: 13.4%
% After Ozone Exposure (60 minutes) [2]: 0.552%
% Before Ozone Exposure (0 minutes) [2]: 0.638%

CCCCCc1cc2c(c(O)c1C(=O)O)-c1cc(C)ccc1C(C)(C)O2 [CBNA]
% Change (decrease) [2]: 0.04%
% After Ozone Exposure (60 minutes) [2]: 0.0458%
% Before Ozone Exposure (0 minutes) [2]: 0.046%

CCCCC(C#N)(Cn1cncn1)c1ccc(Cl)cc1 (stereo not shown) [Myclobutanil]
Sample 1: residue on pesticide treated hemp exposed to ozone [1]: 0.39 mg/kg
Sample 2: residue on pesticide treated hemp exposed to ozone [1]: 0.28 mg/kg
Sample 3: residue on pesticide treated hemp exposed to ozone [1]: 0.28 mg/kg
average reduction of pesticide across the three samples tested [1]: 0.18 ppm
Control: residue on pesticide treated hemp not exposed to ozone [1]: 0.5 mg/kg

CCCCCc1cc2c(c(O)c1C(=O)O)[C@@H]1C=C(C)CC[C@H]1C(C)(C)O2 [THCA]
% Change (decrease) [2]: 7.1%
% After Ozone Exposure (60 minutes) [2]: 15.7%
% Before Ozone Exposure (0 minutes) [2]: 16.9%

CCCc1cc2c(c(O)c1C(=O)O)[C@@H]1C=C(C)CC[C@H]1C(C)(C)O2 [THCVA]
% Change (decrease) [2]: 1.2%
% After Ozone Exposure (60 minutes) [2]: 0.076%
% Before Ozone Exposure (0 minutes) [2]: 0.077%

CCCCCc1cc(O)c2c(c1)OC(C)(C)[C@@H]1CCC(C)=C[C@@H]21 [THC]
% Change (decrease) [2]: 9.2%
% After Ozone Exposure (60 minutes) [2]: 0.680%
% Before Ozone Exposure (0 minutes) [2]: 0.749%
